Source: ChEMBL document CHEMBL5131527, “Novel BTK Inhibitors for Treating Autoimmune Disorders and Cancer” (ACS Med Chem Lett, 2022)
pIC50: −log10 of the molar value.

Biological target: Tyrosine-protein kinase BTK (Homo sapiens, UniProt Q06187)
Experiment: Inhibition of BTK (unknown origin) using fluorescein-labeled polyGAT peptide as substrate incubated for 75 min in presence of ATP by time resolved fluorescence method

Chain of Tyrosine-protein kinase BTK (Q06187 whole entry): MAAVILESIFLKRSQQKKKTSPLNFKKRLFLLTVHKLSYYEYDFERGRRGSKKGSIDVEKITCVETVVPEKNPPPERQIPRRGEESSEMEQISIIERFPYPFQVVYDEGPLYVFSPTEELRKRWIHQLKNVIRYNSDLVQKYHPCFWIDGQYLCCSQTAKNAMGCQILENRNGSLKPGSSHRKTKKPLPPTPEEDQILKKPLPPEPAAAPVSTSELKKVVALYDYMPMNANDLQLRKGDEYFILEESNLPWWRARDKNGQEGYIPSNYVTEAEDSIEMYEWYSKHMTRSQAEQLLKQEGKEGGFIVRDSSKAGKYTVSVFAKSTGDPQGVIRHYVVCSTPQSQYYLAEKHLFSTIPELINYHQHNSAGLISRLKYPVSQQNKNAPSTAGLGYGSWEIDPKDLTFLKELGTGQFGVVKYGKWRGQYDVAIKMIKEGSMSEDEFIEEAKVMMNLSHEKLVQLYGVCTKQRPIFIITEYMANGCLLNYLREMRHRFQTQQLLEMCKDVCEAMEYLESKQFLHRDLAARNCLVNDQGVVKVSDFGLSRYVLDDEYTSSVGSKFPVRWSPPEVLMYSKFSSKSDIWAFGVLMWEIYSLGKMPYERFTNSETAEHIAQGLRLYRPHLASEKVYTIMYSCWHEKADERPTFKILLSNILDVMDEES

C=CC(=O)N1CCN(c2cnccc2-c2ccc(CNC(=O)c3noc(C(C)(C)C)n3)c(C)c2)CC1
pIC50: ≥ 9.00

C=CC(=O)N1CCN(c2cncnc2-c2ccc(CNC(=O)c3cn(C(C)(C)C)nn3)c(C)c2)CC1
pIC50: ≥ 9.00

C=CC(=O)N(C)C1CCCN(c2cnccc2-c2ccc(CNC(=O)c3noc(C(C)(C)C)n3)c(C)c2)C1 (stereo unspecified)
pIC50: ≥ 9.00

C=CC(=O)N(C)C1CCN(c2cncnc2-c2ccc(CNC(=O)c3cn(C(C)(C)C)nn3)c(C)c2)C1 (stereo unspecified)
pIC50: ≥ 9.00

C=CC(=O)N1CCN(c2cncnc2-c2ccc(CNC(=O)c3nnn(C(C)(C)C)n3)c(C)c2)CC1
pIC50: ≥ 9.00

C=CC(=O)N(C)CC1CCN(c2cncnc2-c2ccc(CNC(=O)c3noc(C(C)(C)C)n3)c(C)c2)C1 (stereo unspecified)
pIC50: ≥ 9.00
